For this experiment, the target named is S1P1 (Homo sapiens, UniProt P21453). As to the kind of experiment: CNG cAMP Assay (Assay 1). The arrangement: host or cells: HEK293 cells expressing the CNG channel. It is filed as cell-based. The protocol:
Frozen HEK293 cells expressing the CNG channel and S1P1 (BD Biosciences, San Jose, Calif.) were thawed and plated into the wells of a black, clear bottom, 384-well CellBind plate (Corning, Corning, N.Y.) at 14,000 cells per well. HEK293 cells expressing the CNG channel and CB1 (BD Biosciences) were cultured and plated under the same conditions. The cells were incubated for 16 h at 37° C. in complete DMEM medium (Invitrogen Carlsbad, Calif.) containing 10% FBS (HyClone Logan, Utah), 250 μg/mL geneticin (Invitrogen), and 1 μg/mL puromycin (Sigma-Aldrich, St. Louis, Mo.). A membrane potential dye (BD Biosciences) was added and the plates were incubated for 2-2.5 h at room temperature.
Test compounds were tested at maximum concentrations of 10 μM. Compounds were diluted in DMSO (10 concentration points, 3-fold each) and added to the assay plate at final DMSO concentrations of 1.8%. For each compound, there were duplicate assay plates and each assay plate had duplicate wells per concentration point. Test compounds were added to the cells in a DPBS solution containing 25 μM Ro 20-1724 (Sigma-Aldrich), 500 nM of the A2b receptor agonist NECA (Sigma-Aldrich) and 10 nM (EC95) of S1P (Avanti Alabaster, Ala.) and incubated for 90 min. The assay plate was read before compound addition (T0) and after the 90 min incubation (T90) using an EnVision plate reader (PerkinElmer, Waltham, Mass.) at an excitation wavelength of 350 nm and an emission wavelength of 590 nm. The T90/T0 ratio was determined for each concentration of the test compounds. The percent agonist activity was determined as [(test compound−DMSO alone control)/(NECA alone control−DMSO alone control)*100]. The percent activities were plotted against compound concentration to determine EC50 using XLFit (IDBS, Alameda, Calif.). The control used for calculating rEC50 in the S1P1 CNG agonist assay was DMSO.
Assay 1 is the CNG cAMP Assay as described in Biological Example 1. Assay 2a and 2b are the Tango™ β-arrestin Recruitment Assay in HEK293 and U2OS cells, respectively, as described in Biological Example 2. Assay 3a is the hS1P1R GTPγS Binding Assay as described in Biological Example 3. Assay 3b is the GTP-Eu Binding Assay as described in Biological Example 3. EC50's were measured unless otherwise noted. […] In the table, “nt” means the Compound was not tested and “no” means the compound was tested but had no measurable activity under the assay conditions employed.

Setting [1] is: relative EC50 was measured (footnote 1), read-out: Assay 1 Relative EC50.

Results on twelve molecules are retold here after US20100160369A1, “S1P1 Agonists and Methods of Making And Using” (EXELIXIS, INC., priority 2008, published 2010).

Where two headings read alike, the source gives them in different places.

Chain of S1P1 (P21453 whole entry): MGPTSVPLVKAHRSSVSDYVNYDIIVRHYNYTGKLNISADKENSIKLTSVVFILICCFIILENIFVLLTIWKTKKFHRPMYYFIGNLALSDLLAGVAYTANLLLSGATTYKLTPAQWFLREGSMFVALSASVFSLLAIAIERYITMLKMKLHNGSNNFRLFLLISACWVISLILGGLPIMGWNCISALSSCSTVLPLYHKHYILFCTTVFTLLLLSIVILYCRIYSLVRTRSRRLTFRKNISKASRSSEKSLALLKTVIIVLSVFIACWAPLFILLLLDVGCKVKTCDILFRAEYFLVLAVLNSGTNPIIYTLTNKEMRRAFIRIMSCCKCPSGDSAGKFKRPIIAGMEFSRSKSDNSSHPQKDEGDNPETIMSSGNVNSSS

A word on the EC50: it is the concentration at which the effect is half-maximal. `CCOC(=O)C(C)Oc1cc(Cl)c(-c2noc(-c3cn4cc(C(F)(F)F)cc(Cl)c4n3)n2)cc1F` (stereo not drawn) [Example 113, ethyl 2-[(5-chloro-4-{5-[8-chloro-6-(trifluoromethyl)imidazo[1,2-a]pyridin-2-yl]-1,2,4-oxadiazol-3-yl}-2-fluorophenyl)oxy]propanoate]: where the note is “read-out: Assay 1 EC50”, the EC50 is not above 0.1 µM.

Take `CS(=O)(=O)Nc1ccc(-c2noc(-c3cn4cc(C#N)cc(Br)c4n3)n2)c(Cl)c1` [Example 114, N-{4-[5-(8-bromo-6-cyanoimidazo[1,2-a]pyridin-2-yl)-1,2,4-oxadiazol-3-yl]-3-chlorophenyl}methanesulfonamide]: the EC50 under setting [1] is 1 to 5 µM.

As to `CS(=O)(=O)Nc1ccc(-c2noc(-c3cn4cc(C(F)(F)F)cc(Cl)c4n3)n2)cc1` [Example 117, N-(4-{5-[8-chloro-6-(trifluoromethyl)imidazo[1,2-a]pyridin-2-yl]-1,2,4-oxadiazol-3-yl}phenyl)methanesulfonamide], where the note is “read-out: Assay 1 EC50”, the concentration giving a half-maximal response (EC50) is not above 0.1 µM.

Regarding `Cc1cc(-c2noc(-c3cn4cc(C(F)(F)F)cc(Cl)c4n3)n2)ccc1NS(C)(=O)=O` [Example 119, N-(4-{5-[8-chloro-6-(trifluoromethyl)imidazo[1,2-a]pyridin-2-yl]-1,2,4-oxadiazol-3-yl}-2-methylphenyl)methanesulfonamide], the EC50 (read-out: Assay 1 EC50) was not above 0.1 µM.

On to `O=C(O)CNCc1ccc(-c2noc(-c3cn4cc(C(F)(F)F)cc(Cl)c4n3)n2)c(Cl)c1` [Example 120, N-[(3-chloro-4-{5-[8-chloro-6-(trifluoromethyl)imidazo[1,2-a]pyridin-2-yl]-1,2,4-oxadiazol-3-yl}phenyl)methyl]glycine], for which the EC50 (read-out: Assay 1 EC50) is 0.5 to 1 µM.

For the molecule `O=C(O)C1CN(Cc2cccc(-c3noc(-c4cn5cc(C(F)(F)F)cc(Cl)c5n4)n3)c2)C1` [Example 121, 1-[(3-{5-[8-chloro-6-(trifluoromethyl)imidazo[1,2-a]pyridin-2-yl]-1,2,4-oxadiazol-3-yl}phenyl)methyl]azetidine-3-carboxylic acid], under “read-out: Assay 1 EC50”, the EC50 is 0.5 to 1 µM.

For `CS(=O)(=O)Nc1ccc(-c2noc(-c3cn4cc(C(F)(F)F)cc(Cl)c4n3)n2)cc1Cl` [Example 122, N-(2-chloro-4-{5-[8-chloro-6-(trifluoromethyl)imidazo[1,2-a]pyridin-2-yl]-1,2,4-oxadiazol-3-yl}phenyl)methanesulfonamide], the EC50 (read-out: Assay 1 EC50) is not above 0.1 µM.

On to `O=C(O)CCNCc1ccc(-c2noc(-c3cn4cc(C(F)(F)F)cc(Cl)c4n3)n2)cc1` [Example 123, N-[(4-{5-[8-chloro-6-(trifluoromethyl)imidazo[1,2-a]pyridin-2-yl]-1,2,4-oxadiazol-3-yl}phenyl)methyl]-beta-alanine], for which the EC50 (read-out: Assay 1 EC50) is 0.1 to 0.5 µM.

For the molecule `Cc1cc(Br)c2nc(-c3nc(-c4ccc(NS(C)(=O)=O)cc4Cl)no3)cn2c1` [Example 125, N-{4-[5-(8-bromo-6-methylimidazo[1,2-a]pyridin-2-yl)-1,2,4-oxadiazol-3-yl]-3-chlorophenyl}methanesulfonamide], under setting [1], the EC50 lay within 1 to 5 µM.

Consider `CC(C)(O)c1ccc(-c2noc(-c3cn4cc(C(F)(F)F)cc(Cl)c4n3)n2)c(Cl)c1` [Example 126, 2-(3-chloro-4-{5-[8-chloro-6-(trifluoromethyl)imidazo[1,2-a]pyridin-2-yl]-1,2,4-oxadiazol-3-yl}phenyl)propan-2-ol], for which the concentration giving a half-maximal response (EC50) (read-out: Assay 1 EC50) lay within 0.1 to 0.5 µM.

As to `O=C(O)C1CN(Cc2ccc(-c3noc(-c4cn5cc(C(F)(F)F)cc(Cl)c5n4)n3)cc2Cl)C1` [Example 127, 1-[(2-chloro-4-{5-[8-chloro-6-(trifluoromethyl)imidazo[1,2-a]pyridin-2-yl]-1,2,4-oxadiazol-3-yl}phenyl)methyl]azetidine-3-carboxylic acid], the EC50 (read-out: Assay 1 EC50) was in the range of 0.1 to 0.5 µM.

Turning to `C=CS(=O)(=O)Nc1ccc(-c2noc(-c3cn4cc(C(F)(F)F)cc(Cl)c4n3)n2)c(Cl)c1` [Example 128, N-(3-chloro-4-{5-[8-chloro-6-(trifluoromethyl)imidazo[1,2-a]pyridin-2-yl]-1,2,4-oxadiazol-3-yl}phenyl)ethenesulfonamide], the 50% effective concentration (EC50) (read-out: Assay 1 EC50) was in the range of 0.1 to 0.5 µM.
